Measured values as given in patent publication US20240383856A1 (Zedira GmbH, priority 2021, published 2024).

How the values were obtained:
[1] = Caco-2 permeability assay (CacoReady kit); format: in vitro ADME; settings: human, Caco-2, Caco-2 barrier, CacoReady kit; above 1×10^−6 cm/s classified as permeable
Summary of the method: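 Caco-2 monolayer barrier, commercial ready-to-use kit, manufacturer protocol. Read-out: Papp.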

[2] = logD by shake flask method (octanol / PBS pH 7.4, HPLC); format: physicochemical; settings: octanol / PBS pH 7.4, shake flask
Summary of the method: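 LogD obtained by HPLC measurement of how the compound distributes between PBS (pH 7.4) and octanol in a shake-flask experiment.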

[3] = target: T1, recombinant human transglutaminase 2 (Homo sapiens, UniProt P21980); assay: Transglutaminase assay (DCC-assay): incorporation of dansylcadaverine into dimethylcasein; format: biochemical; settings: recombinant human TG2 10 nM; dansylcadaverine incorporation into dimethylcasein; read-out: IC50 TG2
T1 construct: purchased Zedira T022
T1 sequence (P21980 1-687): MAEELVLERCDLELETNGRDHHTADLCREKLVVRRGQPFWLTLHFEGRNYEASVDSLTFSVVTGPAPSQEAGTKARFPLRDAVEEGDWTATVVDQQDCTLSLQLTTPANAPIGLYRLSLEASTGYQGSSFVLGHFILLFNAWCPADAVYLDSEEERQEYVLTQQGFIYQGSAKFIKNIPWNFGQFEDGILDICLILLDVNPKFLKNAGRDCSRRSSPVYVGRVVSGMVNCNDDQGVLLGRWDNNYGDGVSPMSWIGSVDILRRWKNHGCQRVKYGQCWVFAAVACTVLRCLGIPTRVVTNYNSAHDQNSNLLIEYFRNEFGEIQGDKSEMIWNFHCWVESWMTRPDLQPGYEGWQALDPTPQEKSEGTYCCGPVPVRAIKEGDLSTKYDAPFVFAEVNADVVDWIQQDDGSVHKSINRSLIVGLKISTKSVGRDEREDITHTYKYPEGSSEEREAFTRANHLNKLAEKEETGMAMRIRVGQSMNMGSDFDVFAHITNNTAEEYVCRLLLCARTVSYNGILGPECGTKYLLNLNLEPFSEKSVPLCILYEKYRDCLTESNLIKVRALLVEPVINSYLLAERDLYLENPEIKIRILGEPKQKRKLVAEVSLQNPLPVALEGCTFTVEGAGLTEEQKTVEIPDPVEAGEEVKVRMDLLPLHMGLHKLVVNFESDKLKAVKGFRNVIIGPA
Summary of the method: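 IC50 is the inhibitor level that blocks 50% of initial activity. Activity is the fluorescence slope (λex 330, λem 500 nm) between 20 and 30 min of a 37 °C run, relative to a 2% DMSO control. The enzyme is recombinant human tissue transglutaminase, 10 nM final, tested against a 1:2 inhibitor dilution series in a pH 8.0 mix with 10 mM CaCl2, 10 mM glutathione, 16.7 µM dansylcadaverine and 4 µM N,N-dimethylcasein.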

SMILES | Papp [1] [×10⁻⁶ cm/s] | logD [2] | IC50 [3] [nM]
CNC(=O)C(=O)CC[C@H](NC(=O)c1c[nH]cc1C(C)(C)C)C(=O)Nc1cccn(CCC23CC4CC(CC(C4)C2)C3)c1=O [II-164] | 1 to 10 | 3 to 5 | 400 to 2500
CNC(=O)C(=O)CC[C@H](NC(=O)c1cc(C#N)cn1C)C(=O)Nc1cccn(CCCC23CC4CC(CC(C4)C2)C3)c1=O [II-165] | 1 to 10 | 3 to 5 | 400 to 2500
CNC(=O)C(=O)CC[C@H](NC(=O)c1ncc(OC)o1)C(=O)Nc1cccn(CCC(=O)NC2C3CC4CC(C3)CC2C4)c1=O (stereo partly drawn) [II-166, (S)-N1-(1-(3-(2-adamantylamino)-3-oxopropyl)-2-oxo-1,2-dihydropyridin-3-yl)-2-(5-methoxyoxazole-2-carboxamido)-N6-methyl-5-oxohexanediamide] | 1 to 10 | 1 to 3 | 400 to 2500
CNC(=O)C(=O)CC[C@H](NC(=O)c1cncnc1C)C(=O)Nc1cccn(CC(=O)NC2C3CC4CC2CC(C(=O)O)(C4)C3)c1=O (stereo partly drawn) [II-173, (S)-N1-(1-(2-(5-carboxy-2-aminoadamantane)-2-oxoethyl)-2-oxo-1,2-dihydropyridin-3-yl)-N6-methyl-2-(4-methylpyrimidine-5-carboxamido)-5-oxohexanediamide] | < 1 | < 1 | 40 to 400
CNC(=O)C(=O)CC[C@H](NC(=O)C1CCc2ccccc2C1)C(=O)Nc1cccn(CC(=O)NC2C3CC4CC2CC(C(=O)N(C)C)(C4)C3)c1=O (stereo partly drawn) [II-174, (2S)-N1-(1-(2-(4-aminoadamantane-N,N-dimethyl-1-carboxamide)-2-oxoethyl)-2-oxo-1,2-dihydropyridin-3-yl)-N6-methyl-5-oxo-2-(1,2,3,4-tetrahydronaphthalene-2-carboxamido)hexanediamide] | < 1 | < 1 | 40 to 400
CC(C)(C)NC(=O)C(=O)CC[C@H](NC(=O)[C@@H]1CN2CCN1CC2)C(=O)Nc1cccn(CC(=O)NC2C3CC4CC(C3)CC2C4)c1=O (stereo partly drawn) [II-175, (S)-2-((S)-1,4-diazabicyclo[2.2.2]octane-2-carboxamido)-N6-tert-butyl-N1-(1-(2-(2-adamantylamino)-2-oxoethyl)-2-oxo-1,2-dihydropyridin-3-yl)-5-oxohexanediamide] | < 1 | 1 to 3 | 400 to 2500
CC(C)(C)NC(=O)C(=O)CC[C@H](NC(=O)c1c[nH]c2ccccc12)C(=O)Nc1cccn(CC(=O)NC2C3CC4CC(C3)CC2C4)c1=O (stereo partly drawn) [II-176, (S)-N1-tert-butyl-5-(1H-indole-3-carboxamido)-N6-(1-(2-(2-adamantylamino)-2-oxoethyl)-2-oxo-1,2-dihydropyridin-3-yl)-2-oxohexanediamide] | 1 to 10 | 3 to 5 | 400 to 2500
Cc1cn2c(C(=O)N[C@@H](CCC(=O)C(=O)NC(C)(C)C)C(=O)Nc3cccn(CC(=O)NC4C5CC6CC(C5)CC4C6)c3=O)csc2n1 (stereo partly drawn) [II-177, (S)-N1-tert-butyl-N6-(1-(2-(2-adamantylamino)-2-oxoethyl)-2-oxo-1,2-dihydropyridin-3-yl)-5-(6-methylimidazo[2,1-b]thiazole-3-carboxamido)-2-oxohexanediamide] | 1 to 10 | 3 to 5 | 400 to 2500

Now from value to compound:

Papp [1] [×10⁻⁶ cm/s] | logD [2] | IC50 [3] [nM] | SMILES
< 1 | < 1 | 40 to 400 | CNC(=O)C(=O)CC[C@H](NC(=O)c1snnc1C)C(=O)Nc1cccn(CC(=O)N[C@H]2C[C@H]3CC[C@]2(C)C3(C)C)c1=O [II-161, (S)-N1-methyl-5-(4-methyl-1,2,3-thiadiazole-5-carboxamido)-2-oxo-N6-(2-oxo-1-(2-oxo-2-((1R,2S,4R)-1,7,7-trimethylbicyclo[2.2.1]heptan-2-ylamino)ethyl)-1,2-dihydropyridin-3-yl)hexanediamide]
< 1 | < 1 | 40 to 400 | CNC(=O)C(=O)CC[C@H](NC(=O)c1cnnn1C)C(=O)Nc1cccn(CC(=O)N[C@H]2C[C@H]3CC[C@]2(C)C3(C)C)c1=O [II-162, (S)-N1-methyl-5-(1-methyl-1H-1,2,3-triazole-5-carboxamido)-2-oxo-N6-(2-oxo-1-(2-oxo-2-((1R,2S,4R)-1,7,7-trimethylbicyclo[2.2.1]heptan-2-ylamino)ethyl)-1,2-dihydropyridin-3-yl)hexanediamide]
< 1 | < 1 | 40 to 400 | CNC(=O)C(=O)CC[C@H](NC(=O)c1ccnn1C)C(=O)Nc1cccn(CC(=O)N[C@H]2C[C@H]3CC[C@]2(C)C3(C)C)c1=O [II-163, (S)-N1-methyl-5-(1-methyl-1H-pyrazole-5-carboxamido)-2-oxo-N6-(2-oxo-1-(2-oxo-2-((1R,2S,4R)-1,7,7-trimethylbicyclo[2.2.1]heptan-2-ylamino)ethyl)-1,2-dihydropyridin-3-yl)hexanediamide]
1 to 10 | < 1 | < 40 | CNC(=O)C(=O)CC[C@H](NC(=O)c1oc2ccccc2c1C)C(=O)Nc1cccn(CC(=O)NC23CC(C2)C3)c1=O [II-167, (S)-N1-(1-(2-(bicyclo[1.1.1]pentan-1-ylamino)-2-oxoethyl)-2-oxo-1,2-dihydropyridin-3-yl)-N6-methyl-2-(3-methylbenzofuran-2-carboxamido)-5-oxohexanediamide]
< 1 | < 1 | 40 to 400 | CNC(=O)C(=O)CC[C@H](NC(=O)c1coc(C(C)=O)n1)C(=O)Nc1cccn(CC(=O)NC23CC(C2)C3)c1=O [II-168, (S)-2-(2-acetyloxazole-4-carboxamido)-N1-(1-(2-(bicyclo[1.1.1]pentan-1-ylamino)-2-oxoethyl)-2-oxo-1,2-dihydropyridin-3-yl)-N6-methyl-5-oxohexanediamide]
1 to 10 | < 1 | < 40 | CNC(=O)C(=O)CC[C@H](NC(=O)c1oc2ccccc2c1C)C(=O)Nc1cccn(CC(=O)NC23CCC(C2)C3)c1=O [II-169, (S)-N1-(1-(2-(bicyclo[2.1.1]hexan-1-ylamino)-2-oxoethyl)-2-oxo-1,2-dihydropyridin-3-yl)-N6-methyl-2-(3-methylbenzofuran-2-carboxamido)-5-oxohexanediamide]
1 to 10 | < 1 | 40 to 400 | CNC(=O)C(=O)CC[C@H](NC(=O)c1cnc(C(C)C)o1)C(=O)Nc1cccn(CC(=O)NC23CCC(C2)C3)c1=O [II-170, (S)-N1-(1-(2-(bicyclo[2.1.1]hexan-1-ylamino)-2-oxoethyl)-2-oxo-1,2-dihydropyridin-3-yl)-2-(2-isopropyloxazole-5-carboxamido)-N6-methyl-5-oxohexanediamide]
1 to 10 | < 1 | < 40 | CNC(=O)C(=O)CC[C@H](NC(=O)c1cc2ccccc2o1)C(=O)Nc1cccn(CC(=O)NC2C3CCCC2CC3)c1=O (stereo partly drawn) [II-171, (2S)-2-(benzofuran-2-carboxamido)-N1-(1-(2-(bicyclo[3.2.1]octan-8-ylamino)-2-oxoethyl)-2-oxo-1,2-dihydropyridin-3-yl)-N6-methyl-5-oxohexanediamide]
1 to 10 | < 1 | 40 to 400 | CNC(=O)C(=O)CC[C@H](NC(=O)c1c(C)noc1C)C(=O)Nc1cccn(CC(=O)NC2C3CCCC2CC3)c1=O (stereo partly drawn) [II-172, (2S)-N1-(1-(2-(bicyclo[3.2.1]octan-8-ylamino)-2-oxoethyl)-2-oxo-1,2-dihydropyridin-3-yl)-2-(3,5-dimethylisoxazole-4-carboxamido)-N6-methyl-5-oxohexanediamide]
